According to ChEMBL document CHEMBL2029335, “Synthesis, X-ray analysis, and biological evaluation of a new class of stereopure lactam-based HIV-1 protease inhibitors” (J Med Chem, 2012):
pEC50, pKi: −log10 of the molar value.

Tests used:
[1] = target: Protease (Human immunodeficiency virus 1, UniProt Q9YQ12); assay: Inhibition of HIV1 protease expressed in Escherichia coli using DABCYL-Abu-Ser-Gln-ASN-Tyr-Pro-Ile-Val-Gln-EDANS as substrate preincubated for 20 mins measured for 45 mins by fluorometry
Protease, sequence (Q9YQ12 whole entry): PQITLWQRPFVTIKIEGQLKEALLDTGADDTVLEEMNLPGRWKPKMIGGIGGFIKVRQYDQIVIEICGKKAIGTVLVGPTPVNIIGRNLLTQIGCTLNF

[2] = system: MT4; assay: Cytotoxicity against human MT4 cells after 5 days by XTT assay; type: cell-based; details: mt4, 120 h
[3] = system: Human immunodeficiency virus 1; assay: Antiviral activity against HIV1 infected in human MT4 cells; type: functional, organism-based; details: Human immunodeficiency virus 1, MT4
[4] = system: Liver microsomes; assay: (§1) Intrinsic clearance in human liver microsomes at 1 uM after 30 mins by LC-MS/MS analysis; type: ADME, Microsome; details: microsomes, 0.5 h, 1 µM
[5] = system: Caco-2; assay: Apparent permeability from apical to basolateral side in human Caco2 cells after 60 mins; type: ADME, cell-based; details: caco-2, 1 h
[6] = as §1; type: ADME, Microsome; details: liver microsomes, read-out: CLH

SMILES	pKi [1]	CC50 [2]	pEC50 [3]	CLH [4]	Papp [5]	microsomal CLint at 1 µM [6]
COC(=O)N[C@H](C(=O)NN(CC[C@@]1(Cc2ccccc2)C(=O)N([C@H]2c3ccccc3C[C@H]2O[Si](C)(C)C(C)(C)C)C[C@H]1O[Si](C)(C)C(C)(C)C)Cc1ccc(Br)cc1)C(C)(C)C	6.12	> 50000 nM	< 5.00			
COC(=O)N[C@H](C(=O)NN(CC[C@@]1(Cc2ccccc2)C(=O)N([C@H]2c3ccccc3C[C@H]2O[Si](C)(C)C(C)(C)C)C[C@@H]1O[Si](C)(C)C(C)(C)C)Cc1ccc(Br)cc1)C(C)(C)C	6.10		< 5.00			
COC(=O)N[C@H](C(=O)NN(CC[C@@]1(Cc2ccccc2)C(=O)N([C@H]2c3ccccc3C[C@H]2O)C[C@H]1O)Cc1ccc(Br)cc1)C(C)(C)C	8.68	> 50000 nM	6.19	> 300 µL/min/mg		
COC(=O)N[C@H](C(=O)NN(CC[C@]1(Cc2ccccc2)C(=O)N([C@H]2c3ccccc3C[C@H]2O)C[C@H]1O)Cc1ccc(Br)cc1)C(C)(C)C	5.92	15000 nM	< 5.00			
COC(=O)N[C@H](C(=O)NN(CC[C@]1(Cc2ccccc2)C(=O)N([C@H]2c3ccccc3C[C@H]2O)C[C@@H]1O)Cc1ccc(Br)cc1)C(C)(C)C	6.03		< 5.00			
COC(=O)N[C@H](C(=O)NN(CC[C@@]1(Cc2ccccc2)C(=O)N([C@H]2c3ccccc3C[C@H]2O)C[C@@H]1O)Cc1ccc(Br)cc1)C(C)(C)C	8.19		6.46		17 ×10⁻⁶ cm/s	
COC(=O)N[C@H](C(=O)NN(CC[C@@]1(Cc2ccccc2)C(=O)N([C@H]2c3ccccc3C[C@H]2O)C[C@H]1O)Cc1ccc(-c2ccccn2)cc1)C(C)(C)C	8.77	28000 nM	6.72			
COC(=O)N[C@H](C(=O)NN(CC[C@@]1(Cc2ccccc2)C(=O)N([C@H]2c3ccccc3C[C@H]2O)C[C@@H]1O)Cc1ccc(-c2ccccn2)cc1)C(C)(C)C	8.70	> 50000 nM	6.74			
COC(=O)N[C@H](C(=O)NN(CC[C@@]1(Cc2ccccc2)C(=O)N([C@H]2c3ccccc3C[C@H]2O)C[C@H]1O)Cc1ccc(-c2cccnc2)cc1)C(C)(C)C	9.10	> 50000 nM	7.40	230 µL/min/mg	3.8 ×10⁻⁶ cm/s	
COC(=O)N[C@H](C(=O)NN(CC[C@@]1(Cc2ccccc2)C(=O)N([C@H]2c3ccccc3C[C@H]2O)C[C@@H]1O)Cc1ccc(-c2cccnc2)cc1)C(C)(C)C	9.15		7.00	120 µL/min/mg	5.1 ×10⁻⁶ cm/s	
COC(=O)N[C@H](C(=O)NN(CC[C@@]1(Cc2ccccc2)C(=O)N([C@H]2c3ccccc3C[C@H]2O)C[C@H]1O)Cc1ccc(-c2ccncc2)cc1)C(C)(C)C	9.40	> 50000 nM	7.40			
COC(=O)N[C@H](C(=O)NN(CC[C@@]1(Cc2ccccc2)C(=O)N([C@H]2c3ccccc3C[C@H]2O)C[C@@H]1O)Cc1ccc(-c2ccncc2)cc1)C(C)(C)C	8.77		7.02			
COC(=O)N[C@H](C(=O)NN(CCC[C@@]1(Cc2ccccc2)C(=O)N([C@H]2c3ccccc3C[C@H]2O)C[C@H]1O)Cc1ccc(Br)cc1)C(C)(C)C	7.89	26000 nM	5.41	> 300 µL/min/mg	22 ×10⁻⁶ cm/s	
COC(=O)N[C@H](C(=O)NN(CCC[C@@]1(Cc2ccccc2)C(=O)N([C@H]2c3ccccc3C[C@H]2O)C[C@H]1O)Cc1ccc(-c2ccccc2)cc1)C(C)(C)C	7.92	15000 nM	6.07			
COC(=O)N[C@H](C(=O)NN(CCC[C@@]1(Cc2ccccc2)C(=O)N([C@H]2c3ccccc3C[C@H]2O)C[C@H]1O)Cc1ccc(-c2cccnc2)cc1)C(C)(C)C	8.28	23000 nM	5.74	122 µL/min/mg	4.4 ×10⁻⁶ cm/s	
COC(=O)N[C@H](C(=O)NN(CCC[C@@]1(Cc2ccccc2)C(=O)N([C@H]2c3ccccc3C[C@H]2O)C[C@H]1O)Cc1ccc(-c2ccncc2)cc1)C(C)(C)C		5900 nM	6.15			
COC(=O)N[C@H](C(=O)NN(CCC[C@@]1(Cc2ccccc2)C(=O)N([C@H]2c3ccccc3C[C@H]2O)C[C@H]1O)Cc1ccc(-c2ccccn2)cc1)C(C)(C)C	8.20	31000 nM	5.60	130 µL/min/mg	3.4 ×10⁻⁶ cm/s	
COC(=O)N[C@H](C(=O)NN(CCC1(Cc2ccccc2)C(=O)N([C@H]2c3ccccc3C[C@H]2O)CC1O)Cc1ccc(-c2ccncc2)cc1)C(C)(C)C (stereo not given in full)	9.10					
COC(=O)N[C@H](C(=O)N[C@@H](Cc1ccccc1)[C@@H](O)CN(Cc1ccc(-c2ccccn2)cc1)NC(=O)[C@@H](NC(=O)OC)C(C)(C)C)C(C)(C)C [ATAZANAVIR]			8.41			90 µL/min/mg
